Experiments:
[1] = tested on: IFNγ stimulated STAT1 phosphorylation on Tyr701 (JAK1/2); assay: JAK1/2 cellular target modulation: IFNγ stimulated phospho-STAT1 in PBMC; type: cell-based; conditions: human PBMC, IFNγ 10 ng/ml; read-out: Infγ-STAT1 IC50
Excerpt: (§1) JAK Cellular Target Modulation Assays
(§2) Target modulation was based upon the ability of a compound to inhibit JAK isoform specific phosphorylation of selected substrates. IL-2 stimulated STAT5 phosphorylation on Tyr694 was used to assess JAK1/3 compound selectivity. GM-CSF stimulated STAT5 phosphorylation on Tyr694 was used to assess JAK2 compound selectivity. IFNγ stimulated STAT1 phosphorylation on Tyr701 was used to assess JAK1/2 compound selectivity. IL-12 stimulated STAT4 phosphorylation on Tyr693 was used to assess JAK2/TYK2 compound selectivity. For all four assays, human PBMC from frozen stocks were thawed, pelleted, resuspended in complete media (90% RPMI, 10% heat inactivated FBS, 10 mM HEPES, 47 μM 2-ME, pen/strep) and placed in wells of a 96 well V-bottom plate at 200,000 per well in 120 μl complete media. Compounds were added as 15 μl per well of 10× working stock solutions in complete media with 1% DMSO (or medium with 1% DMSO for controls) and placed on a plate shaker in a 37° C. incubator with 5% CO2 for 1 hour with gentle shaking (setting of 3). Stimulation used the addition of soluble cytokines. For the JAK1/3 phospho-STAT5 assay, 15 μl of 10× working stock recombinant human IL-2 was added to a final concentration of 25 ng/ml. For the JAK2 phospho-STAT5 assay, 15 μl of 10× working stock recombinant human GM-CSF was added to a final concentration of 5 ng/ml. For the JAK1/2 phospho-STAT1 assay, 15 μl of 10× working stock of recombinant human IFNγ was added to a final concentration of 10 ng/ml. For the JAK2/TYK2 phospho-STAT4 assay, 15 μl of 10× working stock of recombinant human IL-12 was added to a final concentration of 1.7 ng/ml. Plates were then placed back on the plate shaker in the incubator for an additional 5, 5, 10, and 25 minutes respectively upon which the plates were removed from the incubator, sealed with a plate sealer and the cells pelleted at 400×g for 5 minutes. After pelleting, the media was removed by aspiration and the cells were lysed in assay specific cell lysis buffer. The levels of phospho-STATS were determined using a Phospho (Tyr694) STAT5a,b Whole Cell Lysate kit from Meso Scale Discovery. Levels of phospho-STAT1 were determined using a CST-PathScan Phospho-STAT1 (Tyr701) Sandwich ELISA kit. Levels of phospho-STAT4 were determined using a Phospho-STAT4 (Tyr693) Whole Cell Lysate kit from Meso Scale Discovery.

Tyk-2 = Tyk-2 (Homo sapiens (Human), UniProt P29597); assay: Tyk-2 enzyme activity assay (Thermo Fisher SelectScreen, Z-lyte); type: biochemical; conditions: read-out: Tyk-2 Inhibition IC50
Procedure: (§3) JAK1, JAK2, JAK3, and Tyk-2 Enzyme Activity Assays
(§4) The inhibitory potency of candidate compounds of JAK1, JAK2, and Tyk-2 was done at Thermo Fisher Scientific in their Selectscreen using a Z-lyte assay. Following are the assay details for each enzyme.
TYK2: The 2×TYK2/Tyr 03 mixture is prepared in 50 mM HEPES pH 6.5, 0.01% BRIJ-35, 10 mM MgCl2, 1 mM EGTA, 0.02% NaN3. The final 10 μL Kinase Reaction consists of 3.75-15 ng TYK2 and 2 M Tyr 03 in 50 mM HEPES pH 7.0, 0.01% BRIJ-35, 10 mM MgCl2, 1 mM EGTA, 0.01% NaN3. After the one hour KinaseReaction incubation, 5 μL of a 1:4096 dilution of Development Reagent A is added.
(§5) Data reduction for JAK1, JAK2 and TYK2 is done the same, independent of the enzyme run. In summary, background signal is defined in the absence of enzyme and uninhibited signal is defined in the presence of vehicle (2% DMSO) alone. Compounds were evaluated in an 11 point dose-response ranging from […] to 0.34 nM. IC50 values of compounds are determined using a 4 parameter logistical fit of emission ratio as a function of the concentration of compound.

JAK2 = JAK2 (Homo sapiens (Human), UniProt O60674); assay: JAK2 enzyme activity assay (Thermo Fisher SelectScreen, Z-lyte); type: biochemical; conditions: read-out: JAK2 Inhibition IC50
Procedure: as §3, §4
JAK2: The 2×JAK2/Tyr 06 mixture is prepared in 50 mM HEPES pH 7.5, 0.01% BRIJ-35, 10 mM MgCl2, 1 mM EGTA. The final 10 μL Kinase Reaction consists of 0.12-0.5 ng JAK2 and 2 M Tyr 06 in 50 mM HEPES pH 7.5, 0.01% BRIJ-35, 10 mM MgCl2, 1 mM EGTA. After the one hour Kinase Reaction incubation, 5 μL of a 1:128 dilution of Development Reagent A is added.
as §5

[2] = tested on: IL-12 stimulated STAT4 phosphorylation on Tyr693 (JAK2/TYK2); assay: JAK2/TYK2 cellular target modulation: IL-12 stimulated phospho-STAT4 in PBMC; type: cell-based; conditions: human PBMC, IL-12 1.7 ng/ml; read-out: IL12-STAT4 IC50
Excerpt: as §1, §2

[3] = tested on: IL-2 stimulated STAT5 phosphorylation on Tyr694 (JAK1/3); assay: JAK1/3 cellular target modulation: IL-2 stimulated phospho-STAT5 in PBMC; type: cell-based; conditions: human PBMC, IL-2 25 ng/ml; read-out: IL2-STAT5 IC50
Excerpt: as §1, §2

JAK1 = JAK1 (Homo sapiens (Human), UniProt P23458); assay: JAK1 enzyme activity assay (Thermo Fisher SelectScreen, Z-lyte); type: biochemical; conditions: read-out: JAK1 Inhibition IC50
Procedure: as §3, §4
JAK: The 2×JAK-enzyme/Tyr 06 mixture is prepared in 50 mM HEPES pH 6.5, 0.01% BRIJ-35, 10 mM MgCl2, 1 mM EGTA, 0.02% NaN3. The final 10 μL of the Kinase Reaction consists of 21.2-91.5 ng JAK and 2 M Tyr 06 in 50 mM HEPES pH 7.0, 0.01% BRIJ-35, 10 mM MgCl2, 1 mM EGTA, 0.01% NaN3. After the one hour Kinase Reaction incubation, 5 μL of a 1:128 dilution of Development Reagent is added.
as §5

JAK3 (a.a. 781-1124) = JAK3 (a.a. 781-1124) (Homo sapiens (Human), UniProt P52333); assay: JAK3 enzyme activity assay (SRCtide phosphorylation, Caliper); type: biochemical; conditions: 1 uM ATP; read-out: JAK3 Inhibition IC50
Procedure: as §3
Kinase reactions were run in a 384-well Greiner plate with 2% final DMSO concentration under the buffer conditions of 20 mM HEPES, pH 7.5, 10 mM MgCl2, 0.01% BSA, and 0.0005% Tween-20. The kinase reaction components were 2.5 nM JAK3, 1 μM SRCtide peptide and 1 uM ATP. Examples were tested in dose-response starting at 2 M (11 concentrations, 3-fold serial dilution, duplicate reactions). The reactions were incubated at room temperature for 40 minutes, then stopped by adding a 1:1 volume of 30 mM EDTA in 20 mM HEPES, pH 7.5 (15 mM EDTA final). After the reaction was stopped, the phosphorylated and unphosphorylated peptides were separated and quantified using a Caliper LC3000/EZ-Reader system and HTS Well Analyzer Software (Caliper, A PerkinElmer Company, Hopkinton, Mass.). GraFit (Erithacus Software Ltd., Horley, U.K.) was used to calculate inhibitor potency by fitting dose-response data to the 4-parameter logistical IC50 equation.

Sequence of JAK3 (a.a. 781-1124) (P52333 781-1124): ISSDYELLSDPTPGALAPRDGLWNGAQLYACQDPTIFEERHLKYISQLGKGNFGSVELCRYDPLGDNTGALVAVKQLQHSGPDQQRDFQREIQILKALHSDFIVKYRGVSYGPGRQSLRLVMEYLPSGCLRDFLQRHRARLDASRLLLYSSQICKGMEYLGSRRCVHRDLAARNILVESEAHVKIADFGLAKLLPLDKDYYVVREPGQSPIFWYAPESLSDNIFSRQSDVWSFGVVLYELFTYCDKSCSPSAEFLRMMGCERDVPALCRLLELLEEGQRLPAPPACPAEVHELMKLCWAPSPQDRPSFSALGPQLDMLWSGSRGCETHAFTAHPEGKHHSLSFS
Sequence of JAK1 (P23458 whole entry): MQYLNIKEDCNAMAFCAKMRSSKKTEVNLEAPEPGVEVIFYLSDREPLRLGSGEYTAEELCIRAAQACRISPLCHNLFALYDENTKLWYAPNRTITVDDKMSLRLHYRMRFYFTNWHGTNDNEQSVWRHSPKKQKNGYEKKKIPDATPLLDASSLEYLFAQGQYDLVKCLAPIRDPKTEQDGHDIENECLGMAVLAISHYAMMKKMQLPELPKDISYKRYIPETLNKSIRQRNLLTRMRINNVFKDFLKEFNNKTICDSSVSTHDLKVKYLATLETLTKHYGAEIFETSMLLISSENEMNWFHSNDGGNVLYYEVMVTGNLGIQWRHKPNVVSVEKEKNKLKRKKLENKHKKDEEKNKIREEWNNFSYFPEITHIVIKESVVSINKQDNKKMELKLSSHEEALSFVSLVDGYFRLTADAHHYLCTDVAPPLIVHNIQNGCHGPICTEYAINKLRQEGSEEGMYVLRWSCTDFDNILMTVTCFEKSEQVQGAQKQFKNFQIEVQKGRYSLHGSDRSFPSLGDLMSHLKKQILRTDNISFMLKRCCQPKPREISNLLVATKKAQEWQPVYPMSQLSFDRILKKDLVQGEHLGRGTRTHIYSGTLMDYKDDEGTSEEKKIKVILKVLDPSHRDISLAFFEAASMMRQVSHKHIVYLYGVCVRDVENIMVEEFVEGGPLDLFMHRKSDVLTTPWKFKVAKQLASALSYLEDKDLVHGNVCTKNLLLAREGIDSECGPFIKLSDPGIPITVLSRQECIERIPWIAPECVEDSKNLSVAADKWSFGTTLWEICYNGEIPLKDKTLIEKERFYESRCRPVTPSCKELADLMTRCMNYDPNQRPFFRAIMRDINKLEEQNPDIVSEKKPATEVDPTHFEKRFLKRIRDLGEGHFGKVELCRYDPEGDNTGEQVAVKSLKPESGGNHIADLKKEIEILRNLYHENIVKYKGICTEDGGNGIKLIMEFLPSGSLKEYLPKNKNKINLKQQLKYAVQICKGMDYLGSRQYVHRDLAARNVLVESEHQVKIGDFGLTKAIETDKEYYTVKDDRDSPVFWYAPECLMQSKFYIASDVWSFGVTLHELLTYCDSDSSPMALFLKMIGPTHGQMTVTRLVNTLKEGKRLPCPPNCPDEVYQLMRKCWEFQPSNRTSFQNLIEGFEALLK
Sequence of JAK2 (O60674 whole entry): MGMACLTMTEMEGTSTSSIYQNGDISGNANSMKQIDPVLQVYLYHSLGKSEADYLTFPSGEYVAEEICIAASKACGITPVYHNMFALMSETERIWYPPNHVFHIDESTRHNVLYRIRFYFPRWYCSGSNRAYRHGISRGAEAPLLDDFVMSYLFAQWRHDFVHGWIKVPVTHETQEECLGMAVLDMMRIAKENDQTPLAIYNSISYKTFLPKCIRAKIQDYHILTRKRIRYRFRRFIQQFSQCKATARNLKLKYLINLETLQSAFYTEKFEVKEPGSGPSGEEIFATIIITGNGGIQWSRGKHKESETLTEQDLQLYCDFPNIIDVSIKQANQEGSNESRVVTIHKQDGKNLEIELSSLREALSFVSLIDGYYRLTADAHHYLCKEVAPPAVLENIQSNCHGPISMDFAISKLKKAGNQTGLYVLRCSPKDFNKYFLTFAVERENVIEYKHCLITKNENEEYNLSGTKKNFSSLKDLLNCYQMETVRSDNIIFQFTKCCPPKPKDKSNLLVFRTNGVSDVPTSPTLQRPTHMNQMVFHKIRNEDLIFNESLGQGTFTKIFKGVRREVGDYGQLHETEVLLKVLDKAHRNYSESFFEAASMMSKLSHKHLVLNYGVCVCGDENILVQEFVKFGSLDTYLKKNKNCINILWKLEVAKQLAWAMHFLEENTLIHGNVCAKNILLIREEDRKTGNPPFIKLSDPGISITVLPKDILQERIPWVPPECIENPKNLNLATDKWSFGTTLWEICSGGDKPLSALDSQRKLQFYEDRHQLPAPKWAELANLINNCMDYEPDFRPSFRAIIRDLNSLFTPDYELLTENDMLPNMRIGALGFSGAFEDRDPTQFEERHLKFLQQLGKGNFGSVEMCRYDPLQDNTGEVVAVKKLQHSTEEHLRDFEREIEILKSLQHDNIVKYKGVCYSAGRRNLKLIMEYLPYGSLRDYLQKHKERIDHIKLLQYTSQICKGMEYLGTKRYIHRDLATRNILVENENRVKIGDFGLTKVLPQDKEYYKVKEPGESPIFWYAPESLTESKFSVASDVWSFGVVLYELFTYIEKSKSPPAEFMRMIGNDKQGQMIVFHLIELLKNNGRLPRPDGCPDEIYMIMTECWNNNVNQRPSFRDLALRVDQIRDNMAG
Sequence of Tyk-2 (P29597 whole entry): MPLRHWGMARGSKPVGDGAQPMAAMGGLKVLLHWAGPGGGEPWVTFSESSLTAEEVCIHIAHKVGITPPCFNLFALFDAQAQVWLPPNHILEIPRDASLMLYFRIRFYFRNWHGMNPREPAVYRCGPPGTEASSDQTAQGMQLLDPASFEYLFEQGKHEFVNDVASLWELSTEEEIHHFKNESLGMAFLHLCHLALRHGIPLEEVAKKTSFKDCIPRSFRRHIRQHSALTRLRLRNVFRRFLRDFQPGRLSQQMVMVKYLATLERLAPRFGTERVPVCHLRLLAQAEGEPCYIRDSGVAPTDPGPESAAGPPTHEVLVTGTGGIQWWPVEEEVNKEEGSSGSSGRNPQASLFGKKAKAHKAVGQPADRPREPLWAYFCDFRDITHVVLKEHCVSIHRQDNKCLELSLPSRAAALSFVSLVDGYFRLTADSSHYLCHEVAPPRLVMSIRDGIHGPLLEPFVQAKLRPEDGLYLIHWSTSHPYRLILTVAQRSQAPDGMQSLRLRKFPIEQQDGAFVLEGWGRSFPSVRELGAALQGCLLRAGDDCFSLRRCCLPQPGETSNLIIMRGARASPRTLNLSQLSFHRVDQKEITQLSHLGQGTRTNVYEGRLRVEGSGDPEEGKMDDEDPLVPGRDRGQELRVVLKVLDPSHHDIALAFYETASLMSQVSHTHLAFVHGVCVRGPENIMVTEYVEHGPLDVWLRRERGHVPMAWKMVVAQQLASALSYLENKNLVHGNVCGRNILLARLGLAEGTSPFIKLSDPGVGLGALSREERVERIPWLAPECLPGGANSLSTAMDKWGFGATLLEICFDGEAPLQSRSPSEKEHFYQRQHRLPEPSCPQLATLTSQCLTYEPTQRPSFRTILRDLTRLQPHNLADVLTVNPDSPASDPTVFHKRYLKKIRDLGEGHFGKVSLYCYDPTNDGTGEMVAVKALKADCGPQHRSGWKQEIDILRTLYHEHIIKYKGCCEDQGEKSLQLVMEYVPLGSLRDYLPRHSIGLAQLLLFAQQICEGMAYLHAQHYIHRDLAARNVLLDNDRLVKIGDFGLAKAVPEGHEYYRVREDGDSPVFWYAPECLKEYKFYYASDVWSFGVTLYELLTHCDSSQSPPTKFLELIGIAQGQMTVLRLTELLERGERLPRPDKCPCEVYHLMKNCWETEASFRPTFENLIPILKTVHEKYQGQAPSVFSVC

Row | IC50 [1] [nM] | IC50 (Tyk-2) [nM] | IC50 (JAK2) [nM] | IC50 [2] [nM] | IC50 [3] [nM] | IC50 (JAK1) [nM] | IC50 (JAK3 (a.a. 781-1124)) [nM] | SMILES
1 | ≤ 100 | ≤ 10 | ≤ 10 | 100 to 1000 | ≤ 100 | ≤ 10 | ≤ 10 | N#CCC(=O)N1CCC[C@@H](Nc2c(-c3nccs3)cnc3[nH]ccc23)C1 [Example 4, (R)-3-oxo-3-(3-((5-(thiazol-2-yl)-1H-pyrrolo[2,3-b]pyridin-4-yl)amino)piperidin-1-yl)propanenitrile]
2 | ≤ 100 | ≤ 10 | ≤ 10 | 100 to 1000 | ≤ 100 | ≤ 10 | ≤ 10 | N#CCC(=O)N1CCC[C@@H](Nc2c(-c3ncco3)cnc3[nH]ccc23)C1 [Example 5, (R)-3-(3-((5-(oxazol-2-yl)-1H-pyrrolo[2,3-b]pyridin-4-yl)amino)piperidin-1-yl)-3-oxopropanenitrile]
3 | 100 to 1000 | 10 to 100 | 10 to 100 | > 1000 | ≤ 100 | ≤ 10 | ≤ 10 | Cc1noc(-c2cnc3[nH]ccc3c2N[C@@H]2CCCN(C(=O)CC#N)C2)n1 [Example 6, (R)-3-(3-((5-(3-methyl-1,2,4-oxadiazol-5-yl)-1H-pyrrolo[2,3-b]pyridin-4-yl)amino)piperidin-1-yl)-3-oxopropanenitrile]
4 | 100 to 1000 | 10 to 100 | 10 to 100 | > 1000 | 100 to 1000 | 10 to 100 | 10 to 100 | N#CCC(=O)N1CCC[C@@H](Nc2c(-c3nnco3)cnc3[nH]ccc23)C1 [Example 7, (R)-3-(3-((5-(1,3,4-oxadiazol-2-yl)-1H-pyrrolo[2,3-b]pyridin-4-yl)amino)piperidin-1-yl)-3-oxopropanenitrile]
5 | > 1000 | 100 to 1000 | 10 to 100 | > 1000 | 100 to 1000 | 10 to 100 | 10 to 100 | O[C@H]1CC[C@@H](Nc2c(-c3ncco3)cnc3[nH]ccc23)C1 [Example 13, (1S,3R)-3-((5-(oxazol-2-yl)-1H-pyrrolo[2,3-b]pyridin-4-yl)amino)cyclopentan-1-ol]
6 | 100 to 1000 | 10 to 100 | 10 to 100 | > 1000 | ≤ 100 | ≤ 10 | ≤ 10 | Cc1ccnc(-c2cnc3[nH]ccc3c2N[C@@H]2CCCN(C(=O)CC#N)C2)c1 [Example 15, (R)-3-(3-((5-(4-methylpyridin-2-yl)-1H-pyrrolo[2,3-b]pyridin-4-yl)amino)piperidin-1-yl)-3-oxopropanenitrile]
7 | 100 to 1000 | 10 to 100 | 10 to 100 | > 1000 | ≤ 100 | ≤ 10 | ≤ 10 | N#CCC(=O)N1CCC[C@@H](Nc2c(-c3ccn[nH]3)cnc3[nH]ccc23)C1 [Example 18, (R)-3-(3-((5-(1H-pyrazol-5-yl)-1H-pyrrolo[2,3-b]pyridin-4-yl)amino)piperidin-1-yl)-3-oxopropanenitrile]
8 | > 1000 | 100 to 1000 | 100 to 1000 | > 1000 | 100 to 1000 | 10 to 100 | 10 to 100 | Cc1nc(-c2cnc3[nH]ccc3c2N[C@@H]2CCCN(C(=O)CC#N)C2)no1 [Example 19, (R)-3-(3-((5-(5-methyl-1,2,4-oxadiazol-3-yl)-1H-pyrrolo[2,3-b]pyridin-4-yl)amino)piperidin-1-yl)-3-oxopropanenitrile]
9 | 100 to 1000 | 100 to 1000 | 10 to 100 | > 1000 | ≤ 100 | ≤ 10 | 10 to 100 | Cc1cccc(-c2cnc3[nH]ccc3c2N[C@@H]2CCCN(C(=O)CC#N)C2)n1 [Example 20, (R)-3-(3-((5-(6-methylpyridin-2-yl)-1H-pyrrolo[2,3-b]pyridin-4-yl)amino)piperidin-1-yl)-3-oxopropanenitrile]
10 | 100 to 1000 | 10 to 100 | 10 to 100 | 100 to 1000 | ≤ 100 | ≤ 10 | 10 to 100 | N#CCC(=O)N1CCC[C@@H](Nc2c(-c3ccccn3)cnc3[nH]ccc23)C1 [Example 21, (R)-3-oxo-3-(3-((5-(pyridin-2-yl)-1H-pyrrolo[2,3-b]pyridin-4-yl)amino)piperidin-1-yl)propanenitrile]
11 | 100 to 1000 | 10 to 100 | 10 to 100 | > 1000 | 100 to 1000 | 10 to 100 | 10 to 100 | Cc1ccc(-c2cnc3[nH]ccc3c2N[C@@H]2CCCN(C(=O)CC#N)C2)nc1 [Example 22, (R)-3-(3-((5-(5-methylpyridin-2-yl)-1H-pyrrolo[2,3-b]pyridin-4-yl)amino)piperidin-1-yl)-3-oxopropanenitrile]
12 | > 1000 | 100 to 1000 | 100 to 1000 | > 1000 | 100 to 1000 | 10 to 100 | 10 to 100 | N#CCC(=O)N1CCC[C@@H](Nc2c(-c3ncccn3)cnc3[nH]ccc23)C1 [Example 23, (R)-3-oxo-3-(3-((5-(pyrimidin-2-yl)-1H-pyrrolo[2,3-b]pyridin-4-yl)amino)piperidin-1-yl)propanenitrile]

— patent US11420966B2 (ACLARIS THERAPEUTICS, INC., priority 2019, dated 2022)
